# What was measured:
# [1] = target: Human CB1 Receptor-1 (hCB1) (Homo sapiens (Human), UniProt P21554); assay: hCB1 Gai cyclic AMP (cAMP) TR-FRET assay, antagonism of EC80 CP55940 with forskolin; assay type: cell-based; details: hCB1 cells, 30 min pre-incubation
# Description: (§1) Example 3. Biochemical Methods Human CB1 Receptor-1 (hCB1) and Human CB1 Receptor-1b (hCBib)
# (§2) hCB1/hCB1 b Gai Cyclic AMP (cAMP) Assays: Cells were seeded in a 384-well plate at an appropriate density from frozen cells. The cAMP assays were performed according to the manufacturer's protocol using MULTISCREEN™ TR-FRET cAMP 1.0 No Wash Assay Kit. Cells (hCB1 or hCB1 b) were pre-incubated with customer compounds for 30 minutes at rt followed by addition of EC80 CP55940 concentration and Forskolin. Cells were then incubated for 20 minutes at 37C. The reaction was terminated by sequentially adding sequentially adding MULTISCREEN™ Eu-labeled cAMP and MULTISCREEN™ 650-labeled anti-cAMP antibody in lysis buffer. The plate was then incubated at rt for 30 minutes before reading fluorescent emissions at 620 nm and 665 with excitation at 314 nm on FlexStation III (Molecular Devices). The results are shown in Table 2 (“***” denotes an IC50<100 nM; “**” denotes an IC50 between 100 nM and 500 nM, and “*” denotes an IC50>500 nM).
# [2] = target: Human CB1 Receptor-1b (hCB1b) (Homo sapiens (Human), UniProt P21554); assay: hCB1b Gai cyclic AMP (cAMP) TR-FRET assay, antagonism of EC80 CP55940 with forskolin; assay type: cell-based; details: hCB1b cells, 30 min pre-incubation, read-out: CB1b IC50
# Chain of Human CB1 Receptor-1b (hCB1b) (P21554 other isoform, or with tags, fused parts or gaps): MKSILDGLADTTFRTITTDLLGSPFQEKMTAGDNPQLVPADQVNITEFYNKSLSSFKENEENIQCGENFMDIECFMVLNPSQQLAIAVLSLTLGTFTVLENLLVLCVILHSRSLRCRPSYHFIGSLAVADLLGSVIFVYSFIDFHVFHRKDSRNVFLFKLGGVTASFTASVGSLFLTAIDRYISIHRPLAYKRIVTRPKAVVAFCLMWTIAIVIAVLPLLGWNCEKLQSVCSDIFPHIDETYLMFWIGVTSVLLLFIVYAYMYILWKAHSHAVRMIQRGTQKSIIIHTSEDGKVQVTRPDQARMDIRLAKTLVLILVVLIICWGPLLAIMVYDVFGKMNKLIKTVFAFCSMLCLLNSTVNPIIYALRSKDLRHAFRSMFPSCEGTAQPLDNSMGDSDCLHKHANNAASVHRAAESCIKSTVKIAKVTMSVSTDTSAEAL
# Description: as §1, §2
# Chain of Human CB1 Receptor-1 (hCB1) (P21554 whole entry): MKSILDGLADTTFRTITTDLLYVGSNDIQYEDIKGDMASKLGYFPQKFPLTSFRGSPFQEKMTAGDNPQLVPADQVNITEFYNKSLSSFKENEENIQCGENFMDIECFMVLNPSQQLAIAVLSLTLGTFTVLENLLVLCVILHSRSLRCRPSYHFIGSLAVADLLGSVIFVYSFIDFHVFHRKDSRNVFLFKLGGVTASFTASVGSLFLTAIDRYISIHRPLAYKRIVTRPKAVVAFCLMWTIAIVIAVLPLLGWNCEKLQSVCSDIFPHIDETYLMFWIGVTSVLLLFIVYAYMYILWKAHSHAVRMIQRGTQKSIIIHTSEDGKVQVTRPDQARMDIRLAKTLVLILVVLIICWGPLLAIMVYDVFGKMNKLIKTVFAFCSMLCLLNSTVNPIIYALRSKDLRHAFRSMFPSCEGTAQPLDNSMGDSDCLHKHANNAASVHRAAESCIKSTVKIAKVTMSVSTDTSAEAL
IC50 [1] [nM],IC50 [2] [nM],Structure (SMILES)
> 500,> 500,"Cn1cnc(S(=O)(=O)N=C(NCCS(N)(=O)=O)N2C[C@H](c3ccccc3)C(c3ccc(Cl)cc3)=N2)c1 [Compound 67, (S)-3-(4-chlorophenyl)-N′-((1-methyl-1H-imidazol-4-yl)sulfonyl)-4-phenyl-N-(2-sulfamoylethyl)-4,5-dihydro-1H-pyrazole-1-carboximidamide]"
100 to 500,< 100,"C#Cc1ccc(S(=O)(=O)N=C(NCCS(N)(=O)=O)N2C[C@H](c3ccccc3)C(c3ccc(F)cc3)=N2)cc1 [Compound 59, (S)-N′-((4-ethynylphenyl)sulfonyl)-3-(4-fluorophenyl)-4-phenyl-N-(2-sulfamoylethyl)-4,5-dihydro-1H-pyrazole-1-carboximidamide]"
100 to 500,< 100,"NS(=O)(=O)N1CC[C@@H](N/C(=N/S(=O)(=O)c2ccc(Cl)cc2)N2C[C@H](c3ccccc3)C(c3ccc(Cl)cc3)=N2)C1 [Compound 247, (S,Z)-3-(4-chlorophenyl)-N′-((4-chlorophenyl)sulfonyl)-4-phenyl-N-((R)-1-sulfamoylpyrrolidin-3-yl)-4,5-dihydro-1H-pyrazole-1-carboximidamide]"
100 to 500,100 to 500,"CN(CCNS(N)(=O)=O)/C(=N\S(=O)(=O)c1ccc(Cl)cc1)N1C[C@H](c2ccccc2)C(c2ccc(Cl)cc2)=N1 [Compound 173, (S,E)-3-(4-chlorophenyl)-N′-((4-chlorophenyl)sulfonyl)-N-methyl-4-phenyl-N-(2-(sulfamoylamino)ethyl)-4,5-dihydro-1H-pyrazole-1-carboximidamide]"
> 500,> 500,"NS(=O)(=O)CCNC(=NS(=O)(=O)c1cccnc1)N1C[C@H](c2ccccc2)C(c2ccc(F)cc2)=N1 [Compound 69, (S)-3-(4-fluorophenyl)-4-phenyl-N′-(pyridin-3-ylsulfonyl)-N-(2-sulfamoylethyl)-4,5-dihydro-1H-pyrazole-1-carboximidamide]"
< 100,< 100,"C[C@H](CN/C(=N\S(=O)(=O)c1ccc(F)cc1)N1C[C@H](c2ccccc2)C(c2ccc(F)cc2)=N1)S(N)(=O)=O [Compound 53, (S,E)-3-(4-fluorophenyl)-N′-((4-fluorophenyl)sulfonyl)-4-phenyl-N-((R)-2-sulfamoylpropyl)-4,5-dihydro-1H-pyrazole-1-carboximidamide]"
> 500,> 500,"NS(=O)(=O)[C@@H]1CCN(/C(=N/S(=O)(=O)c2ccc(Cl)cc2)N2C[C@H](c3ccccc3)C(c3ccc(Cl)cc3)=N2)C1 (single isomer, unassigned) [Compound 136]"
> 500,> 500,"CN(CCS(N)(=O)=O)/C(=N/S(=O)(=O)c1ccc(Cl)cc1)N1C[C@H](c2ccccc2)C(c2ccc(Cl)cc2)=N1 [Compound 109, (S,Z)-3-(4-chlorophenyl)-N′-((4-chlorophenyl)sulfonyl)-N-methyl-4-phenyl-N-(2-sulfamoylethyl)-4,5-dihydro-1H-pyrazole-1-carboximidamide]"
100 to 500,,"C#Cc1ccccc1S(=O)(=O)N=C(NCCS(N)(=O)=O)N1C[C@H](c2ccccc2)C(c2ccc(Cl)cc2)=N1 [Compound 33, (S)-3-(4-chlorophenyl)-N′-((2-ethynylphenyl)sulfonyl)-4-phenyl-N-(2-sulfamoylethyl)-4,5-dihydro-1H-pyrazole-1-carboximidamide]"
100 to 500,100 to 500,"NS(=O)(=O)[C@H]1CC[C@@H](N/C(=N/S(=O)(=O)c2ccc(Cl)cc2)N2C[C@H](c3ccccc3)C(c3ccc(Cl)cc3)=N2)C1 (single isomer, unassigned) [Compound 145]"
100 to 500,< 100,"NS(=O)(=O)N[C@H]1C[C@@H](N/C(=N\S(=O)(=O)c2ccc(C(F)(F)F)cc2)N2C[C@H](c3ccccc3)C(c3ccc(Cl)cc3)=N2)C1 (single isomer, unassigned) [Compound 245]"
100 to 500,< 100,"NS(=O)(=O)[C@@H]1CC[C@@H](N/C(=N/S(=O)(=O)c2ccc(Cl)cc2)N2C[C@H](c3ccccc3)C(c3ccc(F)cc3)=N2)C1 [Compound 153, (S,Z)-N′-((4-chlorophenyl)sulfonyl)-3-(4-fluorophenyl)-4-phenyl-N-((1R,3R)-3-sulfamoylcyclopentyl)-4,5-dihydro-1H-pyrazole-1-carboximidamide]"
100 to 500,100 to 500,"NS(=O)(=O)[C@@H]1CC[C@H](N/C(=N/S(=O)(=O)c2ccc(Cl)cc2)N2C[C@H](c3ccccc3)C(c3ccc(F)cc3)=N2)C1 [Compound 149, (S,Z)-N′-((4-chlorophenyl)sulfonyl)-3-(4-fluorophenyl)-4-phenyl-N-((1S,3R)-3-sulfamoylcyclopentyl)-4,5-dihydro-1H-pyrazole-1-carboximidamide]"
> 500,> 500,"NS(=O)(=O)[C@H]1CC[C@@H](N/C(=N/S(=O)(=O)c2ccc(Cl)cc2)N2C[C@H](c3ccccc3)C(c3ccc(F)cc3)=N2)CC1 (single isomer, unassigned) [Compound 123]"
< 100,< 100,"O=S(=O)(/N=C(\NCCS(=O)(=O)N1CCNCC1)N1C[C@H](c2ccccc2)C(c2ccc(Cl)cc2)=N1)c1ccc(Cl)cc1 [Compound 159, (S,E)-3-(4-chlorophenyl)-N′-((4-chlorophenyl)sulfonyl)-4-phenyl-N-(2-(piperazin-1-ylsulfonyl)ethyl)-4,5-dihydro-1H-pyrazole-1-carboximidamide]"
< 100,< 100,"C[C@@H](CS(N)(=O)=O)N/C(=N\S(=O)(=O)c1ccc(Cl)cc1)N1CC(c2ccccc2)C(c2ccc(Cl)cc2)=N1 (stereo in doubt) [Compound 1, (R,E)-3-(4-chlorophenyl)-N′-((4-chlorophenyl)sulfonyl)-4-phenyl-N-((S)-1-sulfamoylpropan-2-yl)-4,5-dihydro-1H-pyrazole-1-carboximidamide]"
100 to 500,100 to 500,"NS(=O)(=O)CCNC(=NS(=O)(=O)c1ccc(F)cc1)N1C[C@H](c2ccccc2)C(c2ccc(F)cc2)=N1 [Compound 51, (S)-3-(4-fluorophenyl)-N′-((4-fluorophenyl)sulfonyl)-4-phenyl-N-(2-sulfamoylethyl)-4,5-dihydro-1H-pyrazole-1-carboximidamide]"
< 100,< 100,"NS(=O)(=O)CCNC(=NS(=O)(=O)c1cccc(C(F)(F)F)c1)N1C[C@H](c2ccccc2)C(c2ccc(Cl)cc2)=N1 [Compound 27, (S)-3-(4-chlorophenyl)-4-phenyl-N-(2-sulfamoylethyl)-N′-((3-(trifluoromethyl)phenyl)sulfonyl)-4,5-dihydro-1H-pyrazole-1-carboximidamide]"
< 100,100 to 500,"C[C@@H](CS(N)(=O)=O)N/C(=N\S(=O)(=O)c1ccc(C(F)(F)F)cc1)N1C[C@@H](c2ccccc2)C(c2ccc(Cl)cc2)=N1 [Compound 26, (R,E)-3-(4-chlorophenyl)-4-phenyl-N-((S)-1-sulfamoylpropan-2-yl)-N′-((4-(trifluoromethyl)phenyl)sulfonyl)-4,5-dihydro-1H-pyrazole-1-carboximidamide]"
100 to 500,< 100,"NS(=O)(=O)NC1(CN/C(=N\S(=O)(=O)c2ccc(C(F)(F)F)cc2)N2C[C@H](c3ccccc3)C(c3ccc(Cl)cc3)=N2)CC1 [Compound 235, (S,E)-3-(4-chlorophenyl)-4-phenyl-N-((1-(sulfamoylamino)cyclopropyl)methyl)-N′-((4-(trifluoromethyl)phenyl)sulfonyl)-4,5-dihydro-1H-pyrazole-1-carboximidamide]"
100 to 500,100 to 500,"CN(CCNC(=NS(=O)(=O)c1ccc(Cl)cc1)N1C[C@H](c2ccccc2)C(c2ccc(Cl)cc2)=N1)S(N)(=O)=O [Compound 187, (S,E)-3-(4-chlorophenyl)-N′-((4-chlorophenyl)sulfonyl)-N-(2-(methyl(sulfamoyl)amino)ethyl)-4-phenyl-4,5-dihydro-1H-pyrazole-1-carboximidamide]"
< 100,100 to 500,"C[C@H](CN/C(=N\S(=O)(=O)c1ccc(Cl)cc1)N1C[C@H](c2ccccc2)C(c2ccc(Cl)cc2)=N1)S(N)(=O)=O [Compound 5, (S,E)-3-(4-chlorophenyl)-N′-((4-chlorophenyl)sulfonyl)-4-phenyl-N-((R)-2-sulfamoylpropyl)-4,5-dihydro-1H-pyrazole-1-carboximidamide]"
100 to 500,100 to 500,"CN(C)S(=O)(=O)CCNC(=NS(=O)(=O)c1ccc(Cl)cc1)N1C[C@H](c2ccccc2)C(c2ccc(F)cc2)=N1 [Compound 161, (S,E)-N′-((4-chlorophenyl)sulfonyl)-N-(2-(N,N-dimethylsulfamoyl)ethyl)-3-(4-fluorophenyl)-4-phenyl-4,5-dihydro-1H-pyrazole-1-carboximidamide]"
100 to 500,,"NS(=O)(=O)O[C@H]1C[C@@H](N/C(=N\S(=O)(=O)c2ccc(C(F)(F)F)cc2)N2C[C@H](c3ccccc3)C(c3ccc(Cl)cc3)=N2)C1 [Compound 227, (1R,3s)-3-((S,E)-3-(4-chlorophenyl)-4-phenyl-N′-((4-(trifluoromethyl)phenyl)sulfonyl)-4,5-dihydro-1H-pyrazole-1-carboximidamido)cyclobutyl sulfamate]"
